Measured values as given in patent publication US20100303933A1, “IMMUNOPOTENTIATING COMPOSITION FROM LABISIA PUMILA EXTRACT” (HOLISTA BIOTECH SDN. BHD., priority 2007, published 2010).
Marks after values point to notes of the source that are not given here.

Columns and labels:
[1] = tested on: reticuloendothelial system; assay: Phagocytic response in vivo: clearance of carbon particles from circulation; set-up: species or system mice; details: dose 2.5 mg/ml p.o. (Levamisole)
Procedure: The phagocytic function of the reticuloendothelial system was assayed in groups of six mice each by injecting i.v. 160 mg/kg of 1.6% suspension of gelatin stabilized carbon particles of […] size (Atal et al., 1986). Blood samples were collected before and at intervals varying between 2 to 90 min after carbon injection. An aliquot (10 μL) of blood samples were lysed with 2 mL of 0.1% acetic acid and the transparency determined spectrophotometrically at 675 nm (Uvikon 810, spectrophotometer, Kontron Ltd, Switzerland) as per the method of Hudson and Hay (1980).

[2] = tested on: skin allograft; assay: Skin allograft rejection (CMI response); format: in vivo, mice; details: 2.5 mg/kg p.o. (Levamisole)
Procedure: Skin allograft rejection: Mice were employed for the skin transplantation that were administered LPPM/A003 daily for 7 days and the graft rejection time (GRT) was recorded by daily observation of the epithelial survival.

[3] = tested on: peritoneal murine macrophages; assay: Phagocytic response in vitro: heat killed Candida albicans ingested by peritoneal macrophages; format: cell-based; details: 10 μg/ml (Levamisole)
Procedure: Peritoneal macrophage cells (2×10^6) were allowed to adhere to glass cover slip for 90 minutes at 37° C. in 5% CO2 incubator (95% humidity). Simultaneously heat killed Candida albicans cells (100° C., 60 minutes) were opsonized for 90 minutes with 20% autologous serum to promote phagocytosis. The samples were washed with PBS and immediately evaluated microscopically. The percentage and average number of Candida albicans cells (heat killed) ingested by peritoneal murine macrophages was calculated.

With `c1ccc([C@H]2CN3CCSC3=N2)cc1` [Levamisole] as the molecule, how does the “% Phagocytosis Ex -In vivo study Mean ± S.E.” value [1] read?
The value was 1.78 ± 0.11 %.

What about the “Rejection Time Days Mean ± S.E.” value [2] of the same molecule?
The value was 8.50 ± 0.22 days.

What about the “Graft Rejection (Percent)” value ([2]; ↑ hastened) of the same molecule?
Its value is 34.61^b ↑ Percent.

What about the “% Phagocytosis In vitro study Mean ± S.E.” value [3] of the same molecule?
Its value is 43.11 ± 2.92 %.
